Results as given in patent US9120749B2, “Quinoline derivatives and MELK inhibitors containing the same” (ONCOTHERAPY SCIENCE, INC., priority 2010, dated 2015).

How the values were obtained:
[1] = system: T47D cells; experiment: Cell-based assay: anti-proliferative activity, Cell Counting Kit-8, 72 hours (T47D); details: Homo sapiens, T47D, 72 h
How it was run: (§1)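 Target-specific cytotoxicity: seeded cells treated with MELK inhibitor candidates for 72 h, proliferation quantified via CCK-8, IC50 fitted.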

[2] = system: DU4475 cells; experiment: Cell-based assay: anti-proliferative activity, Cell Counting Kit-8, 72 hours (DU4475); details: Homo sapiens, DU-4475, 72 h
[3] = system: A549 cells; experiment: Cell-based assay: anti-proliferative activity, Cell Counting Kit-8, 72 hours (A549); details: Homo sapiens, A549, 72 h, 72 hours
How it was run: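 A549 cells seeded in 96-well plates and exposed to candidate inhibitors for 72 hours. Growth measured with Cell Counting Kit-8; IC50 values calculated from the dose response.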

[4] = target: MELK (Homo sapiens, UniProt Q14680); experiment: Kinase assay: MELK activity, phosphorylation of FITC-labeled histone H3 peptide measured by IMAP fluorescence polarization; assay type: biochemical; details: read-out: IC50 (μM) (kinase assay)
How it was run: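 Polarization of fluorescence served as the signal for MELK turnover of FITC-conjugated histone H3 peptide. Binding solution quenched each reaction, and plates stood 0.5 hour at room temperature before reading.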

[5] = system: HT-1197 cells; experiment: Cell-based assay: anti-proliferative activity, Cell Counting Kit-8, 72 hours (HT-1197, negative control without MELK expression); details: 72 hours
How it was run: as §1

[6] = system: DU4475 cells; experiment: Cell-based assay: anti-proliferative activity, Cell Counting Kit-8, 72 hours (DU4475); details: Homo sapiens, DU-4475, 72 h; remark: listed apart in the source
[7] = Homo sapiens, HT1197, 72 h, HT1197 cells (negative control)
[8] = Homo sapiens, HT1197, 72 h, HT1197 cells (negative control, no MELK expression)

MELK, sequence (Q14680 whole entry, looked up): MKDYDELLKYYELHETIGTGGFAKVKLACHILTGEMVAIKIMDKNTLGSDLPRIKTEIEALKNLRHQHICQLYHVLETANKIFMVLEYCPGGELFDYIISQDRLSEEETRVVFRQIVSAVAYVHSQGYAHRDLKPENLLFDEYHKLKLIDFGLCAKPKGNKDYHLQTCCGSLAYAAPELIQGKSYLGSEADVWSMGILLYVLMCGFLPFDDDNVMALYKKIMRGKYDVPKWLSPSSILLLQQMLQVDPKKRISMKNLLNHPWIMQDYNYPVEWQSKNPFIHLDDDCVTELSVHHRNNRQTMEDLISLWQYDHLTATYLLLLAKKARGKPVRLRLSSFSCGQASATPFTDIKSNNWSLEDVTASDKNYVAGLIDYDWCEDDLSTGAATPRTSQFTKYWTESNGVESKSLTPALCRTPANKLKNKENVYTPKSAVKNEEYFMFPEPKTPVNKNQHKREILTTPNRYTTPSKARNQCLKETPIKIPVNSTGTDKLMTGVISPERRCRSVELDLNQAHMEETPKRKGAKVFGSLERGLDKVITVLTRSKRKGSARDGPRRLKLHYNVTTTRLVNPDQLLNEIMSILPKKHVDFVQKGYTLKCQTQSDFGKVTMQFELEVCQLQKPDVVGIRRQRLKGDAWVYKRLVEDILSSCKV

SMILES | IC50 [1] [µM] | IC50 [2] [µM] | IC50 [3] [µM] | IC50 [4] [µM] | IC50 [5, 7] [µM] | IC50 [6] [µM] | IC50 [5, 8] [µM] | IC50 ([5]; HT1197 cells (negative control, no MELK expression)) [µM]
CN(C)Cc1cccc(Nc2c(C(=O)C3CC3)cnc3ccc(-c4cc(Cl)c(O)c(Cl)c4)cc23)c1 [Example 624, cyclopropyl(6-(3,5-dichloro-4-hydroxyphenyl)-4-(3-((dimethylamino)methyl)phenylamino)quinolin-3-yl)methanone] | 0.55 | 0.043 | 0.089 | 0.0016 | 3 |  |  | 
CC(C)C(=O)c1cnc2ccc(-c3cc(Cl)c(O)c(Cl)c3)cc2c1N[C@H]1CC[C@H](CN(C)C)CC1 [Example 608, 1-(6-(3,5-dichloro-4-hydroxyphenyl)-4-((1R,4R)-4-((dimethylamino)methyl)cyclohexylamino)quinolin-3-yl)-2-methylpropan-1-one] | 0.15 | 0.072 | 0.25 | 0.0022 | 0.46 |  |  | 
CCCC(=O)c1cnc2ccc(-c3cc(Cl)c(O)c(Cl)c3)cc2c1N[C@H]1CC[C@H](CN(C)C)CC1 [Example 605, 1-{6-(3,5-Dichloro-4-hydroxyphenyl)-4-[trans-4-((dimethylamino)methyl)cylohexylamino]quinolin-3-yl}butan-1-one] | 0.095 | 0.051 | 0.13 | 0.002 | 1.1 |  |  | 
COc1cc(-c2ccc3ncc(C(=O)C4CC4)c(Nc4ccc(CCN(C)C)cc4)c3c2)cc(Cl)c1O [Example 612, (6-(3-chloro-4-hydroxy-5-methoxyphenyl)-4-(4-(2-(dimethylamino)ethyl)phenylamino)quinolin-3-yl)(cyclopropyl)methanone] | 0.84 | 0.4 | 0.72 | 0.0055 | 4.7 |  |  | 
COc1cc(-c2ccc3ncc(C(=O)C4CC4)c(NC4C[C@H]5CC[C@@H](C4)N5)c3c2)cc(Cl)c1O (stereo partly drawn) [Example 579, (4-((1R,3r,5S)-8-azabicyclo[3.2.1]octan-3-ylamino)-6-(3-chloro-4-hydroxy-5-methoxyphenyl)quinolin-3-yl)(cyclopropyl)methanone] | 0.17 | 0.14 | 0.27 | 0.0042 | 7.8 |  |  | 
CN(C)C[C@H]1CC[C@@H](Nc2c(C(=O)C3CC3)cnc3ccc(-c4cc(Cl)c(O)c(Cl)c4)cc23)CC1 [Example 526, cyclopropyl(6-(3,5-dichloro-4-hydroxyphenyl)-4-((1s,4s)-4-((dimethylamino)methyl)cyclohexylamino)quinolin-3-yl)methanone] | 0.29 | 0.15 | 0.25 | 0.0021 | 1.2 |  |  | 
O=C(c1cnc2ccc(-c3cc(F)c(O)c(Cl)c3)cc2c1Nc1cnn(C2CCNCC2)c1)C1CC1 [Example 520] | 0.081 | 0.042 | 0.52 | 0.0016 | 10 |  |  | 
COc1cc(-c2cc3c(Nc4ccc(N5CCNCC5)nc4)c(C(=O)C4CC4)cnc3cc2F)cc(Cl)c1O [Example 578, (6-(3-chloro-4-hydroxy-5-methoxyphenyl)-7-fluoro-4-(6-(piperazin-1-yl)pyridin-3-ylamino)quinolin-3-yl)(cyclopropyl)methanone] | 3 | 2.8 | 1.9 | 0.021 | 8 |  |  | 
COc1cc(-c2ccc3ncc(C(=O)C4CC4)c(Nc4ccc(N5CCC(N)CC5)nc4)c3c2)cc(Cl)c1O [Example 550, (4-(6-(4-aminopiperidin-1-yl)pyridin-3-ylamino)-6-(3-chloro-4-hydroxy-5-methoxyphenyl)quinolin-3-yl)(cyclopropyl)methanone] | 0.1 | 1 | 0.58 | 0.0057 | 2.7 |  |  | 
NC1CCCN(c2ncc(Nc3c(C(=O)C4CC4)cnc4ccc(-c5cc(Cl)c(O)c(Cl)c5)cc34)cn2)C1 (stereo not shown) [Example 628, (4-(2-(3-aminopiperidin-1-yl)pyrimidin-5-ylamino)-6-(3,5-dichloro-4-hydroxyphenyl)quinolin-3-yl)(cyclopropyl)methanone] | 0.0069 | 0.0056 | 0.019 | 0.0015 | 0.33 |  |  | 
COc1cc(-c2ccc3ncc(C(=O)C4CC4)c(C4=CCN(C(=O)CN(C)C)CC4)c3c2)cc(Cl)c1O [Example 521, 1-(4-(6-(3-chloro-4-hydroxy-5-methoxyphenyl)-3-(cyclopropanecarbonyl)quinolin-4-yl)-5,6-dihydropyridin-1(2H)-yl)-2-(dimethylamino)ethanone] | 0.22 | 0.27 | 0.18 | 0.0024 | 1.5 |  |  | 
CN1CCN(C[C@H]2CC[C@H](Nc3c(C(=O)C4CC4)cnc4ccc(-c5cc(Cl)c(O)c(Cl)c5)cc34)CC2)CC1 [Example 618] | 0.23 | 0.12 | 0.21 |  | 2.3 |  |  | 
CC(=O)c1cnc2ccc(-c3cc(Cl)c(O)c(Cl)c3)cc2c1Nc1cccc(CCN(C)C)c1 [Example 729, 1-{6-(3,5-Dichloro-4-hydroxyphenyl)-4-[3-(2-(dimethylamino)ethyl)phenylamino]quinolin-3-yl}ethanone] | 0.52 |  | 0.2 | 0.0022 |  | 0.1 | 10 | 
CC(=O)c1cnc2ccc(-c3cc(F)c(O)c(Cl)c3)cc2c1Nc1ccc(N2CCCC(N)C2)nc1 (stereo not shown) [Example 732, 1-(4-(6-(3-aminopiperidin-1-yl)pyridin-3-ylamino)-6-(3-chloro-5-fluoro-4-hydroxyphenyl)quinolin-3-yl)ethanone] | 0.0056 |  | 0.0094 | 0.0017 |  | 0.0099 |  | 0.18
CC(=O)c1cnc2ccc(-c3cc(F)c(O)c(Cl)c3)cc2c1N[C@@H]1CC[C@@H](CN(C)C)C1 [Example 717, 1-(6-(3-chloro-5-fluoro-4-hydroxyphenyl)-4-((1R,3R)-3-((dimethylamino)methyl)cyclopentylamino)quinolin-3-yl)ethanone] | 0.42 |  | 0.65 | 0.011 |  | 0.34 | 2 | 
COc1cc(-c2ccc3ncc(C(=O)C4CC4)c(Nc4ccc(OCCN)nc4)c3c2)cc(Cl)c1O [Example 722, (4-(6-(2-aminoethoxy)pyridin-3-ylamino)-6-(3-chloro-4-hydroxy-5-methoxyphenyl)quinolin-3-yl)(cyclopropyl)methanone] | 0.19 |  | 0.32 | 0.0043 |  | 0.19 | 2.3 | 
COc1cc(-c2ccc3ncc(C(=O)C4CC4)c(N[C@H]4CC[C@H](CN5CCN(C)CC5)CC4)c3c2)cc(Cl)c1O [Example 637] | 0.68 |  | 0.32 | 0.0035 |  | 0.67 | 2.9 | 
CN(C)C1CCN(C[C@H]2CC[C@H](Nc3c(C(=O)C4CC4)cnc4ccc(-c5cc(F)c(O)c(Cl)c5)cc34)CC2)C1 (stereo partly shown) [Example 662] | 0.19 |  | 0.15 | 0.004 |  | 0.14 | 0.95 | 
O=C(c1cnc2ccc(-c3cc(Cl)c(O)c(Cl)c3)cc2c1Nc1ccc(N2CCC(O)C2)nc1)C1CC1 (stereo not shown) [Example 670, cyclopropyl(6-(3,5-dichloro-4-hydroxyphenyl)-4-(6-(3-hydroxypyrrolidin-1-yl)pyridin-3-ylamino)quinolin-3-yl)methanone] | 0.43 |  | 0.72 | 0.0069 |  | 0.59 | 5.3 | 
